{"source": "patent US20100227921A1", "about": "“AMINO ACID AND PEPTIDE CARBAMATE PRODRUGS OF […] USES THEREOF” (SHIRE LLC, priority 2009, published 2010)", "key": {"[1]": {"assay": "Comparative bioavailability after oral administration to rats (plasma LC-MS-MS)", "type": "in vivo", "conditions": "male, Sprague Dawley, rat, plasma, po, 10 mg free base equiv/kg, oral tapentadol 10 mg free base equiv/kg, animal 5 excluded", "description": "Test substances, i.e., tapentadol or tapentadol valine carbamate were administered by oral gavage to groups of male Sprague Dawley rats.\n(§1) Blood samples were taken at various times after administration and submitted to analysis for the parent drug and pro-drug using a validated LC-MS-MS assay. Pharmacokinetic parameters derived from the plasma analytical data were determined using Win Nonlin."}, "[2]": {"conditions": "cited from earlier work"}, "[3]": {"test_system": "guinea pig small intestine myenteric plexus longitudinal muscle", "assay": "Electrical field stimulation response of isolated guinea pig small intestine smooth muscle (ex vivo)", "conditions": "Cavia porcellus; isolated guinea pig ileum, EFS 14 Hz, non-cumulative 10 nM-30 μM; read-out: approximate EC50, effect on electrical field stimulation response", "description": "Strips of guinea pig small intestine myenteric plexus longitudinal muscle and mounted between platinum ring electrodes. The tissue was stretched to a steady tension of about 1 g and changes in force production were recorded using sensitive transducers.\nThe optimal voltage for stimulation was determined while the tissue was paced with electrical field stimulation (EFS) at 14 Hz, with a pulse width of 0.5 msec (Trains of pulses for 20 seconds, every 50 seconds).\nEFS at optimal voltage continued throughout the protocol (stable responses=“baseline measurement of EFS”).\nThe 3 test conditions employed were as follows:\n(1) Vehicle (deionised water, added at equivalent volume additions to test articles), (2) Tapentadol at 6 concentrations (10 nM, 100 nM, 1 μM, 3 μM, 10 μM & 30 μM) (3) Tapentadol valine carbamate at 6 concentrations (10 nM, 100 nM, 1 μM, 3 μM, 10 μM, & 30 μM).\nFollowing 10 minutes of baseline EFS, first addition of test article or vehicle (deionized water) was performed.\nTest concentrations were added in a non-cumulative manner with PSS washes between each addition. Next, TTX (Na+ channel blocker) was added to confirm EFS responses were elicited via nerve stimulation. EFS was then stopped."}, "[4]": {"assay": "Comparative bioavailability after oral or intravenous administration to monkeys (plasma LC-MS-MS)", "type": "in vivo, cynomolgus monkey", "conditions": "monkey, below the quantitative limit", "description": "Test substances i.e., tapentadol and tapentadol valine carbamate were administered (either intravenously or orally) to a group of five male cynomolgus monkeys in a three way crossover design. The oral doses were given at 1 mg tapentadol base equivalents/kg while the intravenous dose was 0.5 mg/kg\nBlood samples were taken at various times after administration and submitted to analysis for the parent drug and tapentadol valine carbamate using a validated LC-MS-MS assay. Pharmacokinetic parameters derived from the plasma analytical data were determined using Win Nonlin."}, "[5]": {"assay": "Comparative in vivo bioavailability study in the dog (oral gavage, plasma LC-MS-MS)", "conditions": "for half-life / AUC / AUC(0-t) / Cmax / Tmax: Beagle, plasma, po", "description": "Test substances (i.e., tapentadol (1 mg/kg) and tapentadol valine carbamate (0.8 mg tapentadol base equivalents/kg)) were administered by oral gavage to a group of five dogs (dog nos. 1, 2, 3, 4 and 5) in a two-way crossover design. The characteristics of the test animals are set out in Table 3.\nas §1"}, "[6]": {"conditions": "oral tapentadol HCl 1 mg tapentadol base equiv/kg, individual dogs 1-5"}, "[7]": {"conditions": "oral tapentadol valine carbamate 0.8 mg tapentadol base equiv/kg, individual dogs 1-5"}}, "note": "“And” between values parts separate entries of the source, which are not always exact repeats. Equal values may be shown once. Read-outs that look alike come from different tables or passages of the source. Marks after values point to notes of the source that are not given here.", "data": [{"smiles": "CC[C@@H](c1cccc(O)c1)[C@@H](C)CN(C)C", "note": "(racemic) [Tapentadol, (−)-(1R,2R)-3-(3-dimethyl-amino-1-ethyl-2-methyl-propyl)-phenol]", "values": [{"measurement": "AUC(0-t)", "setting": "[1]; mean, read-out: AUCt of tapentadol", "result": 16.4, "unit": "ng·h/mL"}, {"measurement": "Cmax", "setting": "[1]; mean, read-out: Cmax of tapentadol", "result": 4.67, "unit": "ng/mL"}, {"measurement": "Tmax", "setting": "[1]; median, read-out: Tmax of tapentadol", "result": 1, "unit": "h"}, {"measurement": "clearance (printed C1)", "setting": "[2]; Terlinden et al. (2007)", "result": "1468 ± 122", "unit": "mL/min"}, {"measurement": "plasma half-life", "setting": "[2]; humans", "result": 4.5, "unit": "h"}, {"measurement": "EC50", "setting": "[3]", "result": "~200", "unit": "nM"}, {"measurement": "Plasma levels of tapentadol", "setting": "[4]; after giving the drug (tapentadol)", "result": "< 0.5", "unit": "ng/mL"}, {"measurement": "Plasma levels of tapentadol", "setting": "[4]; after giving the prodrug (tapentadol valine carbamate)", "result": "< 0.5", "unit": "ng/mL"}, {"measurement": "half-life", "setting": "[5]; 0.8 mg/kg, oral tapentadol valine carbamate 0.8 mg tapentadol base equiv/kg, calculated as ln2/mean k, read-out: t½ of tapentadol (converted)", "result": 0.8, "unit": "h"}, {"measurement": "AUC", "setting": "[5]; 0.8 mg/kg, oral tapentadol valine carbamate 0.8 mg tapentadol base equiv/kg, individual dogs 1-5, read-out: AUC of tapentadol", "result": 31.4, "unit": "ng·h/mL"}, {"measurement": "AUC(0-t)", "setting": "[5]; 0.8 mg/kg, oral tapentadol valine carbamate 0.8 mg tapentadol base equiv/kg, individual dogs 1-5, read-out: AUCt of tapentadol", "result": 29.5, "unit": "ng·h/mL"}, {"measurement": "Cmax", "setting": "[5]; 0.8 mg/kg, oral tapentadol valine carbamate 0.8 mg tapentadol base equiv/kg, individual dogs 1-5, read-out: Cmax of tapentadol", "result": 13.7, "unit": "ng/mL"}, {"measurement": "Tmax", "setting": "[5]; 0.8 mg/kg, oral tapentadol valine carbamate 0.8 mg tapentadol base equiv/kg, individual dogs 1-5, read-out: Tmax of tapentadol", "result": 1, "unit": "h"}, {"measurement": "half-life", "setting": "[5]; 0.8 mg/kg, oral tapentadol valine carbamate 0.8 mg tapentadol base equiv/kg, individual dogs 1-5, read-out: t½ of tapentadol (converted)", "result": 0.8, "unit": "h"}, {"measurement": "AUC", "setting": "[5]; 0.8 mg/kg, oral tapentadol valine carbamate 0.8 mg tapentadol base equiv/kg, mean of 5 dogs, read-out: AUC of tapentadol", "result": 34.2, "unit": "ng·h/mL"}, {"measurement": "AUC(0-t)", "setting": "[5]; 0.8 mg/kg, oral tapentadol valine carbamate 0.8 mg tapentadol base equiv/kg, mean of 5 dogs, read-out: AUCt of tapentadol", "result": 32, "unit": "ng·h/mL"}, {"measurement": "Cmax", "setting": "[5]; 0.8 mg/kg, oral tapentadol valine carbamate 0.8 mg tapentadol base equiv/kg, mean of 5 dogs, read-out: Cmax of tapentadol", "result": 14.5, "unit": "ng/mL"}, {"measurement": "Tmax", "setting": "[5]; 0.8 mg/kg, oral tapentadol valine carbamate 0.8 mg tapentadol base equiv/kg, median of 5 dogs, read-out: Tmax of tapentadol", "result": 1, "unit": "h"}, {"measurement": "half-life", "setting": "[5]; 1 mg/kg, oral tapentadol HCl 1 mg tapentadol base equiv/kg, calculated as ln2/mean k, read-out: t½ of tapentadol (converted)", "result": 1.2, "unit": "h"}, {"measurement": "Tmax", "setting": "[5]; 1 mg/kg, oral tapentadol HCl 1 mg tapentadol base equiv/kg, individual dogs 1-5, read-out: Tmax of tapentadol", "result": 0.5, "unit": "h"}, {"measurement": "AUC", "setting": "[5]; 1 mg/kg, oral tapentadol HCl 1 mg tapentadol base equiv/kg, mean of 5 dogs, read-out: AUC of tapentadol", "result": 2.78, "unit": "ng·h/mL"}, {"measurement": "AUC(0-t)", "setting": "[5]; 1 mg/kg, oral tapentadol HCl 1 mg tapentadol base equiv/kg, mean of 5 dogs, read-out: AUCt of tapentadol", "result": 2.56, "unit": "ng·h/mL"}, {"measurement": "Cmax", "setting": "[5]; 1 mg/kg, oral tapentadol HCl 1 mg tapentadol base equiv/kg, mean of 5 dogs, read-out: Cmax of tapentadol", "result": 1.45, "unit": "ng/mL"}, {"measurement": "Tmax", "setting": "[5]; 1 mg/kg, oral tapentadol HCl 1 mg tapentadol base equiv/kg, median of 5 dogs, read-out: Tmax of tapentadol", "result": 0.5, "unit": "h"}, {"measurement": "AUC of tapentadol", "setting": "[5]; [6]", "result": "1.96 ng·h/mL and 2.02 ng·h/mL and 3.38 ng·h/mL and 4.53 ng·h/mL and 1.99 ng·h/mL"}, {"measurement": "AUCt of tapentadol", "setting": "[5]; [6]", "result": "1.84 ng·h/mL and 1.88 ng·h/mL and 2.68 ng·h/mL and 4.48 ng·h/mL and 1.92 ng·h/mL"}, {"measurement": "Cmax of tapentadol", "setting": "[5]; [6]", "result": "0.75 ng/mL and 1.77 ng/mL and 1.27 ng/mL and 2.39 ng/mL and 1.08 ng/mL"}, {"measurement": "T>50%Cmax of tapentadol", "setting": "[5]; [6]", "result": "1.5 h (2×) and 0 h and 0.5 h (2×)"}, {"measurement": "T>50%Cmax of tapentadol", "setting": "[5]; oral tapentadol HCl 1 mg tapentadol base equiv/kg, median of 5 dogs", "result": "0.5^a h"}, {"measurement": "AUC of tapentadol", "setting": "[5]; [7]", "result": "25.5 ng·h/mL and 39.9 ng·h/mL and 29.1 ng·h/mL and 45.0 ng·h/mL"}, {"measurement": "AUCt of tapentadol", "setting": "[5]; [7]", "result": "22.8 ng·h/mL and 36.4 ng·h/mL and 28.3 ng·h/mL and 43.2 ng·h/mL"}, {"measurement": "Cmax of tapentadol", "setting": "[5]; [7]", "result": "11.1 ng/mL and 17.0 ng/mL and 11.7 ng/mL and 19.3 ng/mL"}, {"measurement": "T>50%Cmax of tapentadol", "setting": "[5]; [7]", "result": "1 h (3×) and 1.5 h (2×)"}, {"measurement": "Tmax of tapentadol", "setting": "[5]; [7]", "result": 2, "unit": "h"}, {"measurement": "t½ of tapentadol", "setting": "[5]; [7]", "result": "1.1 h and 0.9 h and 1.0 h and 0.6 h"}, {"measurement": "T>50%Cmax of tapentadol", "setting": "[5]; oral tapentadol valine carbamate 0.8 mg tapentadol base equiv/kg, median of 5 dogs", "result": "1^a h"}]}]}
